# Test results from PMC8869338 (Biosensors, 2022).
# System: T1, RsD2HGDH
# T1 construct: gene D2HGDH
# Format: biochemical, Ralstonia solanacearum
# Conditions: free enzyme; 100 µM DCIP, 200 µM PMS, 50 mM PB pH 7.0 (assay of b15), 25 °C
compound,measurement,value
O=C(O)CC[C@@H](O)C(=O)O [D2HG],Km,433 µM
